Experimental data from ChEMBL document CHEMBL1123834, “Isozyme-specific enzyme inhibitors. 14. 5'(R)-C-[(L-homocystein-S-yl)methyl]adenosine 5'-(beta,gamma-imidotriphosphate), a potent inhibitor of rat methionine adenosyltransferases” (J Med Chem, 1987).

How the values were obtained:
Type in all cases: protein assay
[1] = target: T1, S-adenosylmethionine synthetase (MAT 1 and MAT 2) (Rattus norvegicus, UniProt P13444+P18298); test: Inhibition constants of M-2 Forms of rat methionine adenosyltransferase using Methionine as the variable substrate; Inhibition is competitive type
[2] = target: T1, S-adenosylmethionine synthetase (MAT 1 and MAT 2); test: Inhibition constants of MT Forms of rat Novikoff Ascitic Hepatomae using ATP as the variable substrate; Inhibition is competitive type
[3] = target: T1, S-adenosylmethionine synthetase (MAT 1 and MAT 2); test: Inhibition constants of M-2 Forms of rat methionine adenosyltransferase using ATP as the variable substrate; Inhibition is competitive type
[4] = target: T1, S-adenosylmethionine synthetase (MAT 1 and MAT 2); test: Inhibition constants of MT Forms of rat Novikoff Ascitic Hepatomae using Methionine as the variable substrate; Inhibition is non competitive inhibition
[5] = target: T1, S-adenosylmethionine synthetase (MAT 1 and MAT 2); test: Inhibition constants of M-2 Forms of rat methionine adenosyltransferase using Methionine as the variable substrate; Inhibition is non competitive type
[6] = target: T1, S-adenosylmethionine synthetase (MAT 1 and MAT 2); test: Inhibition constants of MT Forms of rat Novikoff Ascitic Hepatomae using Methionine as the variable substrate; Inhibition is non competitive type

Ki [1] [µM]	Ki [2] [µM]	Ki [3] [µM]	Ki [4] [µM]	Ki [5] [µM]	Ki [6] [µM]	Compound
26	11	16	38	–	–	NC(CCSC(CP(=O)(O)OP(=O)(O)NP(=O)(O)O)[C@H]1O[C@@H](n2cnc3c2NC=NC3N)[C@H](O)[C@@H]1O)C(=O)O (stereo partly drawn)
–	0.27	0.36	–	3	2.3	NC(CCS[C@@H](CNP(=O)(O)OP(=O)(O)OP(=O)(O)O)[C@H]1OC(n2cnc3c2NC=NC3N)[C@H](O)[C@@H]1O)C(=O)O (stereo partly drawn)
